*1 amine or outer side, *2 acyl side, *3 side chain or, on linkers, in order; H or OH if unused. Where a SMILES comes first, the peptide text is derived from it. Side-chain parts run from the residue outwards. The star is where a group is joined. C18 diacid = O=C(O)CCCCCCCCCCCCCCCCC(=O)*; γGlu = O=C(O)[C@H](CCC(=O)[*:2])N[*:1]; Isovaleryl = CC(C)CC(=O)*; Ahx = NCCCCCC(=O)O
Experiments:
[1] = molecular target: T1, Human Neuropeptide Y2 Receptor (Homo sapiens, UniProt P49146); assay: Radioligand binding competition assay (RLB); conditions: Table 3, 125I-PYY(1-36) competition; read-out: Ki
T1 construct: purchased CHEMICON HTS066M
T1 sequence (P49146 1-381): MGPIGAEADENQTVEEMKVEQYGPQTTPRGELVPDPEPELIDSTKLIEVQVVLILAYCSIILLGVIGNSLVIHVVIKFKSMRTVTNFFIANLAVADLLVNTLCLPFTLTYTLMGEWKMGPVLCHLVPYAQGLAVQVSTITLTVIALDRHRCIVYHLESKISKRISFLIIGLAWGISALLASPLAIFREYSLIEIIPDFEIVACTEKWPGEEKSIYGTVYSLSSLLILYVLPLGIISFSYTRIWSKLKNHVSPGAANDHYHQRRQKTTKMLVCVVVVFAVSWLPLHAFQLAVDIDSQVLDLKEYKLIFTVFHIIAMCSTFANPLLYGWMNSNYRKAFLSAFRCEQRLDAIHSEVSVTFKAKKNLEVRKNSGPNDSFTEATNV
Method in brief: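 Competition binding used membranes expressing the receptor (0.5 μg protein/well) in 50 mM HEPES, 5 mM MgCl2, 1 mM CaCl2, pH 7.4 with 0.2% ovalbumin, incubated 2 h at room temperature with shaking. Bound radioligand was collected by filtration onto PEI-soaked GF/C filters and counted; IC50 from nonlinear sigmoidal fits.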

Solubility determination = conditions: for Sol6: pH 6; for Sol7: pH 7
Method in brief: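 Sample: TFA-salt peptide at 10 mg/ml target in 0.1 M Na diphosphate, pH 6.4 or 7.0, shaken 2 h RT, filtered, diluted to 1 mg/ml.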

[2] = molecular target: T2, human NPY5 receptor (hY5R) (Homo sapiens, UniProt Q15761); assay: HTRF cAMP Gi assay, hY5R
T2 sequence (Q15761 1-445): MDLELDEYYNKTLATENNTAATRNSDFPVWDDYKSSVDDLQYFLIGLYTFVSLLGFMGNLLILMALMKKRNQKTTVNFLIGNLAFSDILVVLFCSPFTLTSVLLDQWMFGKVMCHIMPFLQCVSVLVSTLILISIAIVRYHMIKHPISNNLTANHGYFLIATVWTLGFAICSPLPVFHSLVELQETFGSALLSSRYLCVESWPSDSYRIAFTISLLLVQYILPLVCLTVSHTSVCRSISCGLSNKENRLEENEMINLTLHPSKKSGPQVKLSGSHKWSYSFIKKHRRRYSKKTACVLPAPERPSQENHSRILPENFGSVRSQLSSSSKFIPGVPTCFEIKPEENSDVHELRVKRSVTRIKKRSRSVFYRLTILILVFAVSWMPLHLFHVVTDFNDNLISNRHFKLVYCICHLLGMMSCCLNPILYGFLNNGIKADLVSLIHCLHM

Ki [1]	Sol6 (Solubility determination)	Sol7 (Solubility determination)	EC50 [2]	Structure (SMILES)
18.8 nM	8.4 mg/mL	8.7 mg/mL	> 5000 nM	CC[C@H](C)[C@H](NC(=O)[C@H](CCC(=O)O)NC(=O)[C@H](CCC(=O)O)NC(=O)[C@@H]1CCCN1C(=O)[C@H](CO)NC(=O)[C@H](C)NC(=O)[C@H](CC(=O)O)NC(=O)[C@H](CCC(=O)O)NC(=O)[C@H](CCC(=O)O)NC(=O)[C@H](C)NC(=O)[C@H](CCCCNC(=O)CCCCCNC(=O)CC[C@H](NC(=O)CCCCCCCCCCCCCCCCC(=O)O)C(=O)O)NC(=O)[C@H](CCC(=O)O)NC(=O)[C@@H]1CCCN1C(=O)[C@H](C)NC(=O)CC(C)C)C(=O)N[C@@H](CCC(N)=O)C(=O)N[C@@H](CCCNC(=N)N)C(=O)N[C@@H](Cc1ccc(O)cc1)C(=O)N[C@@H](Cc1ccc(O)cc1)C(=O)N[C@H](C(=O)N[C@@H](CO)C(=O)N[C@@H](CC(C)C)C(=O)N[C@@H](CCCNC(=N)N)C(=O)N[C@@H](Cc1c[nH]cn1)C(=O)N[C@@H](Cc1ccc(O)cc1)C(=O)N[C@@H](Cc1ccc(O)cc1)C(=O)N[C@@H](CC(N)=O)C(=O)N[C@@H](Cc1c[nH]c2ccccc12)C(=O)N[C@@H](CC(C)C)C(=O)N[C@H](C(=O)N[C@@H](CCCNC(=N)N)C(=O)N[C@@H](CCC(N)=O)C(=O)N[C@@H](CCCNC(=N)N)C(=O)N[C@@H](Cc1ccc(O)cc1)C(N)=O)[C@@H](C)O)C(C)C [Compound 183, N{alpha-4}-(3-methylbutanoyl)-N{epsilon-7}-(6-[(4S)-4-carboxy-4-(17-carboxyheptadecanamido)butanamido]hexanoyl)-[4A,7K,8A,9E,17I,18Q,22V,28Y,30W,31L]-hPYY(4-36)]
5.04 nM	9.4 mg/mL	9.2 mg/mL	> 5000 nM	CC[C@H](C)[C@H](NC(=O)[C@H](CCC(=O)O)NC(=O)[C@H](CCC(=O)O)NC(=O)[C@@H]1CCCN1C(=O)[C@H](CO)NC(=O)[C@H](C)NC(=O)[C@H](CC(=O)O)NC(=O)[C@H](CCC(=O)O)NC(=O)[C@H](CCC(=O)O)NC(=O)[C@@H]1CCCN1C(=O)[C@H](CCCCNC(=O)CCCCCNC(=O)CC[C@H](NC(=O)CCCCCCCCCCCCCCCCC(=O)O)C(=O)O)NC(=O)[C@H](CCC(=O)O)NC(=O)[C@@H]1CCCN1C(=O)[C@H](C)NC(=O)CC(C)C)C(=O)N[C@@H](CCC(N)=O)C(=O)N[C@@H](CCCNC(=N)N)C(=O)N[C@@H](Cc1ccc(O)cc1)C(=O)N[C@@H](Cc1ccc(O)cc1)C(=O)N[C@H](C(=O)N[C@@H](CO)C(=O)N[C@@H](CC(C)C)C(=O)N[C@@H](CCCNC(=N)N)C(=O)N[C@@H](Cc1c[nH]cn1)C(=O)N[C@@H](Cc1ccc(O)cc1)C(=O)N[C@@H](Cc1ccc(O)cc1)C(=O)N[C@@H](CC(N)=O)C(=O)N[C@@H](Cc1c[nH]c2ccccc12)C(=O)N[C@@H](CC(C)C)C(=O)N[C@H](C(=O)N[C@@H](CCCNC(=N)N)C(=O)N[C@@H](CCC(N)=O)C(=O)N[C@@H](CCCNC(=N)N)C(=O)N[C@@H](Cc1ccc(O)cc1)C(N)=O)[C@@H](C)O)C(C)C [Compound 147, N{alpha-4}-(3-methylbutanoyl)-N{epsilon-7}-(6-[(4S)-4-carboxy-4-(17-carboxyheptadecanamido)butanamido]hexanoyl)-[4A,7K,9E,17I,18Q,22V,28Y,30W,31L]-hPYY(4-36)]
8.65 nM	>10.0 mg/mL	10.0 mg/mL	–	CC(C)CC(=O)N[C@@H](C)C(=O)N1CCC[C@H]1C(=O)N[C@@H](CCC(=O)O)C(=O)N[C@@H](CCCCNC(=O)CCCCCNC(=O)CC[C@H](NC(=O)CCCCCCCCCCCCCCCCC(=O)O)C(=O)O)C(=O)N1CCC[C@H]1C(=O)N[C@@H](CCC(=O)O)C(=O)N[C@@H](CCC(=O)O)C(=O)N[C@@H](CC(=O)O)C(=O)N[C@@H](C)C(=O)N[C@H](C(=O)N1CCC[C@H]1C(=O)N[C@@H](CCC(=O)O)C(=O)N[C@@H](CCC(=O)O)C(=O)N[C@@H](CC(C)C)C(=O)N[C@@H](CCC(N)=O)C(=O)N[C@@H](CCC(N)=O)C(=O)N[C@@H](Cc1ccc(O)cc1)C(=O)N[C@@H](Cc1ccc(O)cc1)C(=O)N[C@H](C(=O)N[C@@H](CO)C(=O)N[C@@H](CC(C)C)C(=O)N[C@@H](CCCNC(=N)N)C(=O)N[C@@H](Cc1c[nH]cn1)C(=O)N[C@@H](Cc1ccc(O)cc1)C(=O)N[C@@H](Cc1ccc(O)cc1)C(=O)N[C@@H](CC(N)=O)C(=O)N[C@@H](Cc1c[nH]c2ccccc12)C(=O)N[C@@H](CC(C)C)C(=O)N[C@H](C(=O)N[C@@H](CCCNC(=N)N)C(=O)N[C@@H](CCC(N)=O)C(=O)N[C@@H](CCCNC(=N)N)C(=O)N[C@@H](Cc1ccc(O)cc1)C(N)=O)[C@@H](C)O)C(C)C)[C@@H](C)O [Compound 177, N{alpha-4}-(3-methylbutanoyl)-N{epsilon-7}-(6-[(4S)-4-carboxy-4-(17-carboxyheptadecanamido)butanamido]hexanoyl)-[4A,7K,9E,13T,18Q,19Q,22V,28Y,30W,31L]-hPYY(4-36)]
0.54 nM	0.1 mg/mL	9.5 mg/mL	–	CC(C)CC(=O)N[C@@H](C)C(=O)N1CCC[C@H]1C(=O)N[C@@H](CCC(=O)O)C(=O)N[C@@H](CCCCNC(=O)CCCCCNC(=O)CC[C@H](NC(=O)CCCCCCCCCCCCCCCCC(=O)O)C(=O)O)C(=O)N1CCC[C@H]1C(=O)N1CCC[C@H]1C(=O)N[C@@H](C)C(=O)N[C@@H](CC(=O)O)C(=O)N[C@@H](C)C(=O)N[C@@H](CO)C(=O)N1CCC[C@H]1C(=O)N[C@@H](CCC(=O)O)C(=O)N[C@@H](CCC(=O)O)C(=O)N[C@H](C(=O)N[C@@H](CCC(N)=O)C(=O)N[C@@H](CCCNC(=N)N)C(=O)N[C@@H](Cc1ccc(O)cc1)C(=O)N[C@@H](Cc1ccc(O)cc1)C(=O)N[C@H](C(=O)N[C@@H](CO)C(=O)N[C@@H](CC(C)C)C(=O)N[C@@H](CCCNC(=N)N)C(=O)N[C@@H](Cc1c[nH]cn1)C(=O)N[C@@H](Cc1ccc(O)cc1)C(=O)N[C@@H](Cc1ccc(O)cc1)C(=O)N[C@@H](CC(N)=O)C(=O)N[C@@H](Cc1c[nH]c2ccccc12)C(=O)N[C@@H](CC(C)C)C(=O)N[C@H](C(=O)N[C@@H](CCCNC(=N)N)C(=O)N[C@@H](CCC(N)=O)C(=O)N[C@@H](CCCNC(=N)N)C(=O)N[C@@H](Cc1ccc(O)cc1)C(N)=O)[C@@H](C)O)C(C)C)[C@@H](C)O [Compound 69, N{alpha-4}-(3-methylbutanoyl)-N{epsilon-7}-(6-[(4S)-4-carboxy-4-(17-carboxyheptadecanamido)butanamido]hexanoyl)-[4A,7K,9P,10A,17T,18Q,22V,28Y,30W,31L]-hPYY(4-36)] (Isovaleryl-APEK([Ahx-γGlu-C18 diacid])PPADASPEETQRYYVSLRHYYNWLTRQRY-NH2)
